# Assay results: patent US9260440B2, “Fused tetra or penta-cyclic dihydrodiazepinocarbazolones as PARP inhibitors” (BeiGene, Ltd., priority 2011, dated 2016)
# System: PARP PARylation in HeLa cells
# Experiment: PARylation assay in HeLa cells
# Assay type: cell-based
# Conditions: Homo sapiens, H2O2 200 μM induced DNA damage
row,Structure (SMILES),EC50 [nM]
1,"O=C1NN=C2CC(c3ccccc3)Cc3[nH]c4cccc1c4c32 (stereo not drawn) [Compound 5, 2-phenyl-2,3,5,10-tetrahydro-[1,2]diazepino[3,4,5,6-def]carbazol-6(1H)-one]",10.1
2,"CN(C)c1ccc(C2CC3=NNC(=O)c4cc(F)cc5[nH]c(c3c45)C2)cc1 (stereo not drawn) [Compound 12, 2-(4-(dimethylamino)phenyl)-8-fluoro-2,3,5,10-tetrahydro-[1,2]diazepino[3,4,5,6-def]carbazol-6(1H)-one]",26.6
3,"N[C@@H](Cc1ccccc1)C(=O)N1CC2=NNC(=O)c3cccc4[nH]c(c2c34)C1 [Compound 64, (S)-2-(2-amino-3-phenylpropanoyl)-2,3,4,9-tetrahydro-2,4,9,10-tetraazacyclohepta[def]fluoren-8(1H)-one]",48
